# Results as given in patent publication US8318811B2, “Method for treating an inflammatory bowel disease using 2-amino-2-[4-(3-benzyloxyphenylthio)-2-chlorophenyl]ethyl-1,3-propanediol or a salt thereof” (Kyorin Pharmaceutical Co., Ltd., priority 2006, dated 2012).
# Counter-ions that a name gives are not always drawn.
# How the values were obtained:
# IL-10 knockout mice = test: Effect on colitis in IL-10 knockout mice (histological score of large intestine); type: in vivo, B6.129P2-IL10<tm1Cgn>/J (IL-10 knockout) mice; settings: 0.1 mg/kg orally once a day for 4 weeks; sum of proximal, middle and distal large intestine scores; average ± standard error
# Method: B6.129P2-IL10^<tm1Cgn>/J (IL-10 knockout) mice (male, 5-6 week old) were obtained for the test. KRP-203 dissolved in distilled water was orally administered at a dose of 0.1 mg/kg once a day for 4 weeks, starting 8 weeks after the animals were obtained. One group was administered distilled water alone as a placebo. Following the administration period, the animals were dissected to remove large intestine, which was then fixed in formalin. Subsequently, tissue slices were prepared from the formalin-fixed large intestine and were stained with hematoxylin and eosin. The proximal, middle, and distal segments of the large intestine were then histologically scored according to the standard procedure (Berg D J, et al., Gastroenterology, 123: 1527-1542 (2002)). The scores for the three segments were added together to determine the histological scores for individual animals. The results are given in average ±standard error.
# [1] = tested on: Dextran Sodium Sulfate-Induced Colitis in Mice; test: Dextran sodium sulfate-induced colitis in mice; type: in vivo, BALB/C male mice; settings: for Length of large intestine / myeloperoxidase activity in large intestine: DSS colitis, average ± standard error
# Method: Colitis was induced in BALB/C male mice by allowing animals To drink a5% aqueous solution of dextran sodium sulfate (DSS) (average molecular weight=5000) for 7 days [Kitajima, S. et. al., Exp Anim, Vol. 49, No. 1: 9-15 (2000)]. KRP-203 dissolved in distilled water (at 0.01, 0.03 and 0.1 mg/kg) was orally administered once a day for 8 days, starting the day before the administration of DSS solution. One group was administered distilled water as a placebo.
# 8 days after the start of the DSS period, mice were anesthetized With diethylether and sacrificed by cervical dislocation. The large intestine (the segment from colon to anus) was removed from each animal. Because it is known that the ingestion of DSS solution causes colitis in mice that causes a decrease in the length of large intestine [Okayasu, I. et. al., Gastroenterology, Vol. 98: 694-702 (1990)], the length of the large intestine from the colon to anus was measured with a caliper. The large intestine was then cut open longitudinally to expose the lumen and the content was washed off with physiological saline. The specimens were assayed and compared for the activity of myeloperoxidase, a marker of inflammation in colitis [Grisham, M B. et. al., Methods Enzymol, Vol. 186: 729-742 (1990)]. […]
# Tacrolimus was suspended in a 0.5% aqueous solution of carboxymethylcellulose sodium (CMC-Na) (at 3 mg/kg) and was administered once a day for 8 days, starting the day before the start of the DSS period. One group was administered 0.5% aqueous CMC-Na solution as a placebo. The increase in the myeloperoxidase activity in large intestine was suppressed by 37% in the 3 mg/kg group as compared to the placebo group.
# [2] = 0.01 mg/kg orally once a day for 8 days
# [3] = 0.03 mg/kg orally once a day for 8 days
# [4] = 0.1 mg/kg orally once a day for 8 days
SMILES,Histological Score (IL-10 knockout mice),suppression of the increase in the myeloperoxidase activity in large intestine as compared to the placebo group ([1]; 0.01 mg/kg group) [%],"Length of large intestine [1, 2] [mm]","myeloperoxidase activity in large intestine [1, 2] [U/g protein]",suppression of the increase in the myeloperoxidase activity in large intestine as compared to the placebo group ([1]; 0.03 mg/kg group) [%],"Length of large intestine [1, 3] [mm]","myeloperoxidase activity in large intestine [1, 3] [U/g protein]",suppression of the increase in the myeloperoxidase activity in large intestine as compared to the placebo group ([1]; 0.1 mg/kg group) [%],"Length of large intestine [1, 4] [mm]","myeloperoxidase activity in large intestine [1, 4] [U/g protein]","suppression of the increase in the myeloperoxidase activity in large intestine as compared to the placebo group ([1]; 3 mg/kg group, suspended in 0.5% CMC-Na, once a day for 8 days) [%]"
"NC(CO)(CO)CCc1ccc(Sc2cccc(OCc3ccccc3)c2)cc1Cl [KRP-203, 2-amino-2-[4-(3-benzyloxyphenylthio)-2-chlorophenyl]ethyl-1,3-propanediol hydrochloride]",0.3 ± 0.2,51,67.4 ± 1.4,55.8 ± 16.2,69,72.7 ± 1.5,36.8 ± 5.9,62,71.4 ± 1.4,44.4 ± 6.4,–
"C=CC[C@@H]1/C=C(\C)C[C@H](C)C[C@H](OC)[C@H]2O[C@@](O)(C(=O)C(=O)N3CCCC[C@H]3C(=O)O[C@H](/C(C)=C/[C@@H]3CC[C@@H](O)[C@H](OC)C3)[C@H](C)[C@@H](O)CC1=O)[C@H](C)C[C@@H]2OC [Tacrolimus, tacrolimus, reference compound]",–,–,–,–,–,–,–,–,–,–,37
